Experimental data reported in patent US10350210B2, “EGFR and ALK dual inhibitor” (PRECEDO PHARMACEUTICALS CO., LTD, priority 2015, dated 2019).

Key:
PC-9 = assay: Effect on cell cycle (PI staining, flow cytometer), PC-9; assay type: cell-based, human; conditions: PC-9 (EGFR delE746_A750), 24 hours
Description: (§1) In order to study which growth phase the cell was halted after administration of the drugs, five cell lines including non-small cell lung cancer cell line A549 (expressing wild-type EGFR gene), non-small cell lung cancer cell line H1975 (expressing EGFR L858R/T790M double mutant gene), non-small cell Lung cancer cell line PC-9 (expressing EGFR delE746_A750 mutant gene), non-small cell lung cancer cell line H3255 (expressing EGFR L858R mutant gene) and non-small cell lung cancer cell NCI-H3122 (expressing ALK gene) were tested for effect of Compound 1 on cell cycle distribution. Two cell lines including non-small cell lung cancer cell NCI-H3122 (expressing ALK gene) and non-small cell lung cancer cell H1975 (expressing EGFR L858R/T790M double mutant gene) were tested for effect of Compound 10 on cell cycle distribution. […]

A549 = assay: Effect on cell cycle (PI staining, flow cytometer), A549; assay type: cell-based, human; conditions: A549 (wild-type EGFR), 24 hours and 48 hours
Description: as §1

[1] = tested on: EGFR protein (EGFR L858R, H3255); assay: Effect on signaling pathway in cells, H3255; assay type: cell-based; conditions: 4 h
Description: In four cell lines (all purchased from ATCC) including non-small cell lung cancer cell line A549 (expressing wild-type EGFR gene), non-small cell lung cancer cell line H1975 (expressing EGFR L858R/T790M double mutant gene), non-small cell lung cancer cell line H3255 (expressing EGFR L858R mutant gene) and non-small cell lung cancer cell line PC-9 (expressing EGFR delE746_A750 mutant gene), the effect of Compound 1 on EGFR or other protein kinases related to signaling pathways of EGFR such as Stat3, AKT, ErK, eIF4E, 4EBP1, P70S6K was assessed by assaying a number of cellular biochemical and functional endpoints. […] The effect of Compound 1 on phosphorylation of Stat3Y705, AKT T308, AKT 5473, Erk T202/204, EGFR Y1068, P70S6K Thr389, eIF4E Ser209, Erk T202/204, 4EBP1 (Thr37/46) in these cell lines was assayed (FIGS. 1a to 1d).

BaF3-ALK-F1174L = assay: Cell growth (Cell Titer-Glo viability), BaF3-ALK-F1174L; assay type: cell-based; conditions: Mus musculus; BaF3-ALK-F1174L (mutant ALK F1174L kinase), 72 hrs
Method in brief: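 Proliferation assay: IL-3-independent BaF3 lines stably expressing TEL-fused human kinase (retroviral MSCV-Puro), plus EGFR-mutant NSCLC lines (HCC827 del19, NCI-H3255 L858R). Read-out: CellTiter-Glo luminescence of viable cells.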

BaF3-FL-EGFR-T790M-L858R = assay: Cell growth (Cell Titer-Glo viability), BaF3-FL-EGFR-T790M-L858R; assay type: cell-based; conditions: Mus musculus; BaF3-FL-EGFR-T790M-L858R (EGFR T790M/L858R mutant kinase), 72 hrs
Method: By testing the effect of the novel kinase inhibitors on the proliferation of cancer cells, the selectivity of the compounds of the present disclosure in inhibiting the proliferation of cancer cells was further assessed. […]
The number of viable cells was determined quantitatively by a microplate reader using Cell Titer-Glo® (Promega, US) chemiluminescence cell viability assay kit.

Row | GI50 (BaF3-ALK-F1174L) [nM] | GI50 (BaF3-FL-EGFR-T790M-L858R) [nM] | Structure (SMILES) | effect on cell cycle distribution (PC-9) | effect on cell cycle (A549) | concentration able to significantly inhibit the phosphorylation of EGFR protein (also affects AKT and ERK phosphorylation) [1] [µM]
1 |  |  | C=CC(=O)Nc1cc(Nc2ncc(Cl)c(Nc3ccccc3S(=O)(=O)C(C)C)n2)c(OC)cc1N1CCN(CC)CC1 [Compound 1, N-(5-(5-chloro-4-(2-(isopropylsulfonyl)phenylamino)pyrimidin-2-ylamino)-2-(4-ethylpiperazin-1-yl)-4-methoxyphenyl)acrylamide] | halt the cells in G0-G1 phase | certain effect | 0.3
2 | 1500 | 2 | C=CC(=O)Nc1cc(Nc2ncc(Cl)c(Nc3ccccc3S(=O)(=O)C(C)C)n2)c(OC)cc1N1CCCN(C)CC1 [Compound 10, N-(5-(5-chloro-4-(2-(isopropylsulfonyl)phenylamino)pyrimidin-2-ylamino)-4-methoxy-2-(4-methyl-1,4-homopiperazin-1-yl)phenyl)acrylamide] |  |  | 
